Columns and labels:
[1] = Membrane permeability (Papp) across Caco-2 cell monolayers; assay type: in vitro ADME; conditions: human, Caco-2 monolayer; for Papp A→B: apical to basolateral, read-out: Papp (cm/s × 10^6) AP-to-BL; for Papp B→A: basolateral to apical, read-out: Papp (cm/s × 10^6) BL-to-AP; for efflux ratio: read-out: RATIO Papp^B-A/Papp^A-B
[2] = tested on: Caco-2 cells; test: as above; assay type: in vitro ADME; conditions: Caco-2; for EFFLUX LIMITED: Yes/No; for PERMEABILITY: class in words (High/Low)
[3] = tested on: male C-57 mice; test: PCP disruption of pre-pulse inhibition of the acoustic startle response; assay type: in vivo; conditions: route not given (method: PO or SC); PCP 5 mg/kg IP
Procedure: The non-competitive NMDA receptor antagonist phencyclidine (PCP) reduces pre-pulse inhibition (PPI) of the acoustic startle response in rodents. Identifying compounds that improve the PCP-induced deficits in pre-pulse inhibition may provide insight into therapeutic strategies for treating schizophrenia. For testing of PPI, male C-57 mice were assigned to five dose groups of eight animals per group, and vehicle or test compound were administered orally (PO) or subcutaneously (SC) 20 minutes prior to intraperitoneal (IP) administration of vehicle or PCP (5 mg/kg). Ten minutes following PCP administration, the mice were placed into Hamilton-Kinder startle chambers and evaluation of pre-pulse inhibition procedure was performed. Following a five-minute acclimatization period with background white noise (65 db), mice were exposed to five different trial types. Trials were presented […] in a quasi-random order, with randomized 5 to 25 second inter-trial intervals. Trials were: stimulus only trial (120 db white noise, 50 ms stimulus); two different prepulse+pulse trials in which a 20 ms 5 db, or 10 db stimuli above a 65 db background preceded the 120 db pulse by 120 ms; a 10 db prepulse without a 120 db pulse; and a no stimulus trial, in which only the background noise was presented.

[4] = tested on: mice; test: Conditioned avoidance responding (CAR, active avoidance); assay type: in vivo; conditions: SC to mice, 20 minutes before test session
Procedure: Training: Consists of 20 trials with variable inter-trial intervals (Trained to 80% Avoidance Criteria). After a one-minute acclimation period, the house light and an acoustic 90 dB tone (conditioned stimuli) are presented. A response (crossing to dark compartment) within 5 seconds ends the trial and trial is recorded as avoidance response (CAR). […] To avoid shock, animals learn to move from the lighted side of the -chamber to the dark side when the cue is presented (avoidance) or moved when the shock is administered (escape). Testing: Vehicle or test compounds are administered S.C. 20 minutes before the test session. (Checking for disruption of cognition and attention)

Row | Papp A→B [1] [×10⁻⁶ cm/s] | EFFLUX LIMITED [2] | PERMEABILITY [2] | efflux ratio [1] | SMILES | PCP Disruption of Pre-pulse Inhibition, result in words [3] | Papp B→A [1] [×10⁻⁶ cm/s] | Conditioned Avoidance Responding, overall effect / effect on escape or avoidance [4] | Conditioned Avoidance Responding, effect on avoidance [4] | Conditioned Avoidance Responding, effect on latency [4]
1 | 17.3 ± 2.3 | No | High |  | CC(C)NCC(O)COc1cccc2ccccc12 (stereo not shown) [Propranolol, reference compound] |  |  |  |  | 
2 | 32.9 ± 9.6 | No | High | 0.77 | O=C1CCCc2c1ccn2CCCN1CCN(c2ncccn2)CC1 [NEO-381, 1-{3-[4-(2-Pyrimidyl)piperazine-1-yl]propyl}-1,5,6,7-tetrahydroindol-4-one] | No reversal | 25.3 ± 0.7 | No effect |  | 
3 | 20.4 ± 1.8 | No | High | 0.43 | O=C1CCCc2c1ccn2CCN1CCN(c2cccc(Cl)c2)CC1 [NEO-376, 1-{2-[4-(3-Chloro-phenyl)-piperazin-1-yl]-ethyl}-1,5,6,7-tetrahydroindol-4-one] |  | 9.4 ± 0.3 | No effect on escape or avoidance |  | significant increase in latency
4 | 27.1 ± 1.2 | No | High | 0.58 | O=C1CCCc2c1ccn2CCCCN1CCN(c2cccc(C(F)(F)F)c2)CC1 [NEO-392, 1-{4-[4-(3-Trifluoromethylphenyl)piperazin-1-yl]-butyl}-1,5,6,7-tetrahydroindol-4-one] |  | 15.7 ± 1.3 |  | Significant reduction in avoidance | Significant increase in latency
5 | 18 ± 0.7 | No | High | 0.75 | O=C1CCCc2c1ccn2CCCN1CCN(c2cccc(Cl)c2)CC1 [NEO-363, 1-{3-[4-(3-Chlorophenyl)piperazine-1-yl]propyl}-1,5,6,7-tetrahydroindol-4-one] |  | 13.1 ± 1.1 | No effect |  | 
6 | 21.5 ± 2.9 | No | High | 0.41 | O=C1CCCc2c1ccn2CCCN1CCN(c2cccc(C(F)(F)F)c2)CC1 [NEO-356, 1-{3-[4-(3-Trifluoromethylphenyl)piperazin-1-yl]propyl}-1,5,6,7-tetrahydroindol-4-one] | No reversal | 8.8 ± 0.3 | No effect |  | 

The remaining lines, values behind:

Row | SMILES | Papp A→B [1] [×10⁻⁶ cm/s] | EFFLUX LIMITED [2] | PERMEABILITY [2] | efflux ratio [1] | PCP Disruption of Pre-pulse Inhibition, result in words [3] | Papp B→A [1] [×10⁻⁶ cm/s] | Conditioned Avoidance Responding, overall effect / effect on escape or avoidance [4] | Conditioned Avoidance Responding, effect on avoidance [4] | Conditioned Avoidance Responding, effect on latency [4]
7 | COc1ccccc1N1CCN(CCCn2ccc3c2CCCC3=O)CC1 [NEO-370, 1-{3-[4-(2-Methoxyphenyl)piperazine-1-yl]propyl}-1,5,6,7-tetrahydroindol-4-one] | 32.1 ± 8.1 | No | High | 0.67 |  | 20 ± 3.4 |  | Significant reduction in avoidance | Significant increase in latency
8 | CN1CCN(C2=Nc3cc(Cl)ccc3Nc3ccccc32)CC1 [Clozapine, clozapine, reference compound] | 15.3 ± 0.7 | No | High | 0.65 |  | 7.4 ± 1.1 |  |  | 
9 | Cc1nc2n(c(=O)c1CCN1CCC(c3noc4cc(F)ccc34)CC1)CCCC2 [Risperidone, risperidone, reference compound] | 21.5 ± 0.2 | No | High |  |  | 14 ± 3.1 |  | Significant reduction in avoidance | Significant increase in latency
10 | O=C1CCCc2c1ccn2CCN1CCN(c2cccc(C(F)(F)F)c2)CC1 [NEO-359, 1-{2-[4-(3-Trifluoromethylphenyl)piperazine-1-yl]ethyl}-1,5,6,7-tetrahydroindol-4-one] | 24 ± 3.9 | No | High | 0.32 | No reversal | 7.6 ± 0.5 | No effect on escape or avoidance |  | Significant decrease in latency
11 | COc1ccccc1N1CCN(CCn2ccc3c2CCCC3=O)CC1 [NEO-377, 1-{2-[4-(2-Methoxyphenyl)-piperazin-1-yl]-ethyl}-1,5,6,7-tetrahydroindol-4-one] | 26 ± 1.8 | No | High | 0.6 |  | 15.5 ± 2.9 |  | Significant reduction in avoidance | Significant increase in latency

Reference: patent publication US6770638B2, “Tetrahydroindolone and purine derivatives linked to arylpiperazines” (Spectrum Pharmaceuticals, Inc., priority 2001, dated 2004)
